What follows are compounds tested against T1, NPM-ALK fusion protein (Homo sapiens, UniProt Q9UM73) (assay: Western blot of NPM-ALK fusion protein levels in SU-DHL-1 cells). Details: SU-DHL-1 cells, 30 nM, Western blot.
T1 construct: endogenous in cells; host or cells: SU-DHL-1; the other entry of the earlier key: NPM1 (P06748, Nucleophosmin)
Format: cell-based
Experimental: Cells were cultured in a 37° C. incubator with 5% CO2.
Cells were washed with cold PBS once and lysed in 1× Laemmli loading buffer directly. […] Membrane was blocked in 5% milk in Tris-buffered saline and Tween 20 (TBST) for 1 h at room temperature, followed by incubation with a primary antibody overnight at 4° C., and a horseradish peroxidase (HRP)-conjugated secondary antibody for 1 h at room temperature. The membrane was imaged by a ChemiDoc MP imaging system (BIO-RAD). Antibodies against GAPDH (abeam), Phospho-ALK (Tyr1507), ALK (Cell Signaling Technology), Tubulin (Santa Cruz) were purchased commercially.
SU-DHL-1 suspension cells were seeded in 12-well plates at a density of 6×10^5/mL and treated with DMSO or indicated compounds at 30 nM or 100 nM for indicated time.
SU-DHL-1 cells were seeded in 12-well plates at a density of 4×10^5/mL and treated with DMSO or indicated serial dilutions of compounds for 16 h. The NPM-ALK fusion protein levels were determined by Western blot and normalized against GPADH (right panel).

T1 sequence (Q9UM73 with tags, fused parts or gaps): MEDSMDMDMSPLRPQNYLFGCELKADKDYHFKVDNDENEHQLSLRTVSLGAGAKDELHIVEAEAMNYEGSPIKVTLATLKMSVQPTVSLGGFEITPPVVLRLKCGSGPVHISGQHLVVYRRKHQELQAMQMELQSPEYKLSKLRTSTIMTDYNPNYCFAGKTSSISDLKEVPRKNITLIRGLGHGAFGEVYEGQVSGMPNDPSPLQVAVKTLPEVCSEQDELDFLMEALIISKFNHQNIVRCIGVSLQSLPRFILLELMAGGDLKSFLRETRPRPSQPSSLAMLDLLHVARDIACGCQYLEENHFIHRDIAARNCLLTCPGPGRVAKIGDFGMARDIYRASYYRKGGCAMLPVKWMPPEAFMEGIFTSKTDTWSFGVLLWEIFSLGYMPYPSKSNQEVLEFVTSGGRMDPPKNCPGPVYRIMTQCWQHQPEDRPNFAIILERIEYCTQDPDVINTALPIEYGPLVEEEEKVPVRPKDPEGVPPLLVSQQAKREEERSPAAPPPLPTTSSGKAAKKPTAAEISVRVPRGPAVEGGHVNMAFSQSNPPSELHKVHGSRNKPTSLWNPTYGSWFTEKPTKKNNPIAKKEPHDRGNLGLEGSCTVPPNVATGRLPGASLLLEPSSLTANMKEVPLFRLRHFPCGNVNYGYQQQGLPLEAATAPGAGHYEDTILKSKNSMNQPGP

SMILES	ALK fusion protein degradation, SU-DHL-1 (30 nM)
Cc1cc(Nc2ncc(Cl)c(Nc3ccccc3S(=O)(=O)C(C)C)n2)c(OC(C)C)cc1C1CCN(CC(=O)NCCCCCCCCCCC(=O)NC(C(=O)N2CC(O)CC2C(=O)NCc2ccc(-c3scnc3C)cc2)C(C)(C)C)CC1 [CZ40-94, (2S,4R)-1-((S)-2-((11-(2-(4-(4-((5-Chloro-4-((2-(isopropylsulfonyl)phenyl)amino)pyrimidin-2-yl)amino)-5-isopropoxy-2-methylphenyl)piperidin-1-yl)acetamido)undecanamido)-3,3-dimethylbutanoyl)-4-hydroxy-N-(4-(4-methylthiazol-5-yl)benzyl)pyrrolidine-2-carboxamide]	+ (Protein degradation 20-80%)

Same assay, conditions: SU-DHL-1 cells, 30 nM, Western blot; read-out: ALK fusion protein degradation, SU-DHL-1 (30 nM)

Dmax at 0.03 µM [%]	SMILES
< 20	Cc1cc(Nc2ncc(Cl)c(Nc3ccccc3S(=O)(=O)C(C)C)n2)c(OC(C)C)cc1C1CCN(CC(=O)NCCCCCCC(=O)N[C@H](C(=O)N2C[C@H](O)C[C@H]2C(=O)NCc2ccc(-c3scnc3C)cc2)C(C)(C)C)CC1 [CZ40-90, (2S,4R)-1-((S)-2-(7-(2-(4-(4-((5-Chloro-4-((2-(isopropylsulfonyl)phenyl)amino)pyrimidin-2-yl)amino)-5-isopropoxy-2-methylphenyl)piperidin-1-yl)acetamido)heptanamido)-3,3-dimethylbutanoyl)-4-hydroxy-N-(4-(4-methylthiazol-5-yl)benzyl)pyrrolidine-2-carboxamide]
< 20	Cc1cc(Nc2ncc(Cl)c(Nc3ccccc3S(=O)(=O)C(C)C)n2)c(OC(C)C)cc1C1CCN(CC(=O)NCCCCCCCCC(=O)N[C@H](C(=O)N2C[C@H](O)C[C@H]2C(=O)NCc2ccc(-c3scnc3C)cc2)C(C)(C)C)CC1 [CZ40-92, (2S,4R)-1-((S)-2-(9-(2-(4-(4-((5-Chloro-4-((2-(isopropylsulfonyl)phenyl)amino)pyrimidin-2-yl)amino)-5-isopropoxy-2-methylphenyl)piperidin-1-yl)acetamido)nonanaimdo)-3,3-dimethylbutanoyl)-4-hydroxy-N-(4-(4-methylthiazol-5-yl)benzyl)pyrrolidine-2-carboxamide]
20 to 80	Cc1cc(Nc2ncc(Cl)c(Nc3ccccc3S(=O)(=O)C(C)C)n2)c(OC(C)C)cc1C1CCN(CC(=O)NCCCCCC(=O)N[C@H](C(=O)N2C[C@H](O)C[C@H]2C(=O)NCc2ccc(-c3scnc3C)cc2)C(C)(C)C)CC1 [CZ40-89, (2S,4R)-1-((S)-2-(6-(2-(4-(4-((5-chloro-4-((2-(isopropylsulfonyl)phenyl)amino)pyrimidin-2-yl)amino)-5-isopropoxy-2-methylphenyl)piperidin-1-yl)acetamido)hexanamido)-3,3-dimethylbutanoyl)-4-hydroxy-N-(4-(4-methylthiazol-5-yl)benzyl)pyrrolidine-2-carboxamide]
< 20	Cc1cc(Nc2ncc(Cl)c(Nc3ccccc3S(=O)(=O)C(C)C)n2)c(OC(C)C)cc1C1CCN(CC(=O)NCCCCCCCCCC(=O)N[C@H](C(=O)N2C[C@H](O)C[C@H]2C(=O)NCc2ccc(-c3scnc3C)cc2)C(C)(C)C)CC1 [CZ40-93]
< 20	Cc1cc(Nc2ncc(Cl)c(Nc3ccccc3S(=O)(=O)C(C)C)n2)c(OC(C)C)cc1C1CCN(CC(=O)NCCOCCOCCOCCOCCC(=O)N[C@H](C(=O)N2C[C@H](O)C[C@H]2C(=O)NCc2ccc(-c3scnc3C)cc2)C(C)(C)C)CC1 [CZ40-87, (2S,4R)-1-((S)-20-(tert-Butyl)-1-(4-(4-((5-chloro-4-((2-(isopropylsulfonyl)phenyl)amino)pyrimidin-2-yl)amino)-5-isopropoxy-2-methylphenyl)piperidin-1-yl)-2,18-dioxo-6,9,12,15-tetraoxa-3,19-diazahenicosan-21-oyl)-4-hydroxy-7V-(4-(4-methylthiazol-5-yl)benzyl)pyrrolidine-2-carboxamide]

Further lines, the compound ahead of its results:

SMILES	Dmax at 0.03 µM [%]
Cc1cc(Nc2ncc(Cl)c(Nc3ccccc3S(=O)(=O)C(C)C)n2)c(OC(C)C)cc1C1CCN(CC(=O)NCCCCCCNc2cccc3c2C(=O)N(C2CCC(=O)NC2=O)C3=O)CC1 (centres unmarked) [CZ40-82, 2-(4-(4-((5-Chloro-4-((2-(isopropylsulfonyl)phenyl)amino)pyrimidin-2-yl)amino)-5-isopropoxy-2-methylphenyl)piperidin-1-yl)-N-(6-((2-(2,6-dioxopiperidin-3-yl)-1,3-dioxoisoindolin-4-yl)amino)hexyl)acetamide]	> 80
Cc1cc(Nc2ncc(Cl)c(Nc3ccccc3S(=O)(=O)C(C)C)n2)c(OC(C)C)cc1C1CCN(CC(=O)NCCOCC(=O)N[C@H](C(=O)N2C[C@H](O)C[C@H]2C(=O)NCc2ccc(-c3scnc3C)cc2)C(C)(C)C)CC1 [CZ40-85, (2S,4R)-1-((S)-2-(2-(2-(2-(4-(4-((5-Chloro-4-((2-(isopropylsulfonyl)phenyl)amino)pyrimidin-2-yl)amino)-5-isopropoxy-2-methylphenyl)piperidin-1-yl)acetamido)ethoxy)acetamido)-3,3-dimethylbutanoyl)-4-hydroxy-N-(4-(4-methylthiazol-5-yl)benzyl)pyrrolidine-2-carboxamide]	< 20
Cc1cc(Nc2ncc(Cl)c(Nc3ccccc3S(=O)(=O)C(C)C)n2)c(OC(C)C)cc1C1CCN(CC(=O)NCCOCCOCCNc2cccc3c2C(=O)N(C2CCC(=O)NC2=O)C3=O)CC1 (centres unmarked) [CZ40-51, 2-(4-(4-((5-Chloro-4-((2-(isopropylsulfonyl)phenyl)amino)pyrimidin-2-yl)amino)-5-isopropoxy-2-methylphenyl)piperidin-1-yl)-N-(2-(2-(2-((2-(2,6-dioxopiperidin-3-yl)-1,3-dioxoisoindolin-4-yl)amino)ethoxy)ethoxy)ethyl)acetamide]	> 80
Cc1cc(Nc2ncc(Cl)c(Nc3ccccc3S(=O)(=O)C(C)C)n2)c(OC(C)C)cc1C1CCN(CC(=O)NCCCCCCCCNc2cccc3c2C(=O)N(C2CCC(=O)NC2=O)C3=O)CC1 (centres unmarked) [CZ40-84, 2-(4-(4-((5-Chloro-4-((2-(isopropylsulfonyl)phenyl)amino)pyrimidin-2-yl)amino)-5-isopropoxy-2-methylphenyl)piperidin-1-yl)-N-(8-((2-(2,6-dioxopiperidin-3-yl)-1,3-dioxoisoindolin-4-yl)amino)octyl)acetamide]	20 to 80
Cc1cc(Nc2ncc(Cl)c(Nc3ccccc3S(=O)(=O)C(C)C)n2)c(OC(C)C)cc1C1CCN(CC(=O)NCCCCCNc2cccc3c2C(=O)N(C2CCC(=O)NC2=O)C3=O)CC1 (centres unmarked) [CZ40-81, 2-(4-(4-((5-Chloro-4-((2-(isopropylsulfonyl)phenyl)amino)pyrimidin-2-yl)amino)-5-isopropoxy-2-methylphenyl)piperidin-1-yl)-N-(5-((2-(2,6-dioxopiperidin-3-yl)-1,3-dioxoisoindolin-4-yl)amino)pentyl)acetamide]	> 80
Cc1cc(Nc2ncc(Cl)c(Nc3ccccc3S(=O)(=O)C(C)C)n2)c(OC(C)C)cc1C1CCN(CC(=O)NCCCNc2cccc3c2C(=O)N(C2CCC(=O)NC2=O)C3=O)CC1 (centres unmarked) [CZ40-79, 2-(4-(4-((5-Chloro-4-((2-(isopropylsulfonyl)phenyl)amino)pyrimidin-2-yl)amino)-5-isopropoxy-2-methylphenyl)piperidin-1-yl)-N-(3-((2-(2,6-dioxopiperidin-3-yl)-1,3-dioxoisoindolin-4-yl)amino)propyl)acetamide]	> 80
Cc1cc(Nc2ncc(Cl)c(Nc3ccccc3S(=O)(=O)C(C)C)n2)c(OC(C)C)cc1C1CCN(CC(=O)NCCCCNc2cccc3c2C(=O)N(C2CCC(=O)NC2=O)C3=O)CC1 (centres unmarked) [CZ40-80, 2-(4-(4-((5-Chloro-4-((2-(isopropylsulfonyl)phenyl)amino)pyrimidin-2-yl)amino)-5-isopropoxy-2-methylphenyl)piperidin-1-yl)-N-(4-((2-(2,6-dioxopiperidin-3-yl)-1,3-dioxoisoindolin-4-yl)amino)butyl)acetamide]	20 to 80
Cc1cc(Nc2ncc(Cl)c(Nc3ccccc3S(=O)(=O)C(C)C)n2)c(OC(C)C)cc1C1CCN(CC(=O)NCCOCCOCCOCCNc2cccc3c2C(=O)N(C2CCC(=O)NC2=O)C3=O)CC1 (centres unmarked) [CZ40-52, 2-(4-(4-((5-Chloro-4-((2-(isopropylsulfonyl)phenyl)amino)pyrimidin-2-yl)amino)-5-isopropoxy-2-methylphenyl)piperidin-1-yl)-N-(2-(2-(2-(2-((2-(2,6-dioxopiperidin-3-yl)-1,3-dioxoisoindolin-4-yl)amino)ethoxy)ethoxy)ethoxy)ethyl)acetamide]	> 80

From patent US20210283261A1, “Compositions and Methods for Treating ALK-Mediated Cancer” (ICAHN SCHOOL OF MEDICINE AT MOUNT SINAI, priority 2017, published 2021)
